According to ChEMBL document CHEMBL1131512, “A new antitumor agent: methyl sulfonium perchlorate of echinomycin” (Bioorg Med Chem Lett, 1998):
Values after ≈ are worked out from the molar mass of the structure shown.

Columns and labels:
B16 [1] = assay: In vivo antitumor activity was determined against B16 tumor cell lines in mice at dose of 1 mg/kg administered intraperitoneally.; assay type: functional, Mus musculus; conditions: route intraperitoneal
P388 [2] = assay: In vivo antitumor activity was determined against P388 tumor cell lines in mice at dose of 1 mg/kg administered intraperitoneally.; assay type: functional, Mus musculus; conditions: route intraperitoneal
SNU-16 = assay: In vitro cytotoxicity against SNU16 tumor cell lines.; assay type: functional, cell-based; conditions: Homo sapiens
B16 [3] = assay: In vitro cytotoxicity against B16 tumor cell lines.; assay type: functional, cell-based; conditions: Mus musculus
P388 [4] = assay: In vitro cytotoxicity against P388 tumor cell lines.; assay type: functional, cell-based; conditions: Mus musculus
B16 [5] = assay: In vivo antitumor activity was determined against B16 tumor cell lines in mice at dose of 0.125 mg/kg administered intraperitoneally. (p<0.05); assay type: functional, Mus musculus; conditions: route intraperitoneal
P388 [6] = assay: In vivo antitumor activity was determined against P388 tumor cell lines in mice at dose of 0.0625 mg/kg administered intraperitoneally.; assay type: functional, Mus musculus; conditions: route intraperitoneal
B16 [7] = assay: In vivo antitumor activity was determined against B16 tumor cell lines in mice at dose of 1 mg/kg administered intraperitoneally. (p<0.05); assay type: functional, Mus musculus; conditions: route intraperitoneal
B16 [8] = assay: In vivo antitumor activity was determined against B16 tumor cell lines in mice at dose of 0.03125 mg/kg administered intraperitoneally.; assay type: functional, Mus musculus; conditions: route intraperitoneal
B16 [9] = assay: In vivo antitumor activity was determined against B16 tumor cell lines in mice at dose of 0.0625 mg/kg administered intraperitoneally. (p<0.05); assay type: functional, Mus musculus; conditions: route intraperitoneal
B16 [10] = assay: In vivo antitumor activity was determined against B16 tumor cell lines in mice at dose of 0.25 mg/kg administered intraperitoneally. (p<0.05); assay type: functional, Mus musculus; conditions: route intraperitoneal
P388 [11] = assay: In vivo antitumor activity was determined against P388 tumor cell lines in mice at dose of 0.03125 mg/kg administered intraperitoneally.; assay type: functional, Mus musculus; conditions: route intraperitoneal
P388 [12] = assay: In vivo antitumor activity was determined against P388 tumor cell lines in mice at dose of 0.125 mg/kg administered intraperitoneally. (p<0.05); assay type: functional, Mus musculus; conditions: route intraperitoneal
P388 [13] = assay: In vivo antitumor activity was determined against P388 tumor cell lines in mice at dose of 1 mg/kg administered intraperitoneally (p<0.05); assay type: functional, Mus musculus; conditions: route intraperitoneal
P388 [14] = assay: In vivo antitumor activity was determined against P388 tumor cell lines in mice at dose of 0.25 mg/kg administered intraperitoneally. (p<0.05); assay type: functional, Mus musculus; conditions: route intraperitoneal
P388 [15] = assay: In vivo antitumor activity was determined against P388 tumor cell lines in mice at dose of 0.25 mg/kg administered intraperitoneally.; assay type: functional, Mus musculus; conditions: route intraperitoneal
P388 [16] = assay: In vivo antitumor activity was determined against P388 tumor cell lines in mice at dose of 0.125 mg/kg administered intraperitoneally.; assay type: functional, Mus musculus; conditions: route intraperitoneal

| SMILES | MST (B16 [1]) [days] | MST (P388 [2]) [days] | IC50 (SNU-16) [ng/mL] | IC50 (B16 [3]) [ng/mL] | IC50 (P388 [4]) [ng/mL] | also measured |
| --- | --- | --- | --- | --- | --- | --- |
| CC(C)[C@H]1C(=O)OC[C@@H](NC(=O)c2cnc3ccccc3n2)C(=O)N[C@@H](C)C(=O)N(C)[C@H]2CSC([S+](C)[O-])[C@@H](C(=O)N1C)N(C)C(=O)[C@H](C)NC(=O)[C@H](NC(=O)c1cnc3ccccc3n1)COC(=O)[C@H](C(C)C)N(C)C2=O (some centres undefined) [listing 1 of 2 here] | 20 | 27 | – | – | – | – |
| CSC1[C@H]2C(=O)N(C)[C@@H](C(C)C)C(=O)OC[C@@H](NC(=O)c3cnc4ccccc4n3)C(=O)N[C@@H](C)C(=O)N(C)[C@@H](C[S+]1C)C(=O)N(C)[C@@H](C(C)C)C(=O)OC[C@@H](NC(=O)c1cnc3ccccc3n1)C(=O)N[C@@H](C)C(=O)N2C.[Cl-] (some centres undefined) [listing 1 of 2 here] | – | – | 0.0049 | 0.09 | 0.0081 | – |
| CSC1[C@H]2C(=O)N(C)[C@@H](C(C)C)C(=O)OC[C@@H](NC(=O)c3cnc4ccccc4n3)C(=O)N[C@@H](C)C(=O)N(C)[C@@H](C[S+]1C)C(=O)N(C)[C@@H](C(C)C)C(=O)OC[C@@H](NC(=O)c1cnc3ccccc3n1)C(=O)N[C@@H](C)C(=O)N2C.[Cl-] (some centres undefined) [listing 2 of 2 here] | – | – | – | – | – | MST (B16 [5]): 25 days; MST (P388 [6]): 32 days; MST (B16 [7]): 28 days; MST (B16 [8]): 23 days; MST (B16 [9]): 24 days; MST (B16 [10]): 26 days; MST (P388 [11]): 31 days; MST (P388 [12]): 33 days; MST (P388 [13]): 35 days; MST (P388 [14]): 34 days |
| CC(C)[C@H]1C(=O)OC[C@@H](NC(=O)c2cnc3ccccc3n2)C(=O)N[C@@H](C)C(=O)N(C)[C@H]2CSC(S(C)(=O)=O)[C@@H](C(=O)N1C)N(C)C(=O)[C@H](C)NC(=O)[C@H](NC(=O)c1cnc3ccccc3n1)COC(=O)[C@H](C(C)C)N(C)C2=O (some centres undefined) [listing 1 of 2 here] | – | – | 1100 (≈ 971 nM) | 820 (≈ 724 nM) | 60 (≈ 52.9 nM) | – |
| CC(C)[C@H]1C(=O)OC[C@@H](NC(=O)c2cnc3ccccc3n2)C(=O)N[C@@H](C)C(=O)N(C)[C@H]2CSC(S(C)(=O)=O)[C@@H](C(=O)N1C)N(C)C(=O)[C@H](C)NC(=O)[C@H](NC(=O)c1cnc3ccccc3n1)COC(=O)[C@H](C(C)C)N(C)C2=O (some centres undefined) [listing 2 of 2 here] | 17 | 25 | – | – | – | – |
| CS[C@H]1SC[C@H]2C(=O)N(C)[C@@H](C(C)C)C(=O)OC[C@@H](NC(=O)c3cnc4ccccc4n3)C(=O)N[C@@H](C)C(=O)N(C)[C@@H]1C(=O)N(C)[C@@H](C(C)C)C(=O)OC[C@@H](NC(=O)c1cnc3ccccc3n1)C(=O)N[C@@H](C)C(=O)N2C [ECHINOMYCIN] | 21 | 27 | 0.00016 (≈ 0.000145 nM) | 6.5e-05 (≈ 5.9e-05 nM) | 0.043 (≈ 0.039 nM) | MST (B16 [5]): 25 days; MST (P388 [15]): 26 days; MST (P388 [6]): 32 days; MST (B16 [8]): 23 days; MST (B16 [9]): 24 days; MST (B16 [10]): 23 days; MST (P388 [11]): 31 days; MST (P388 [16]): 33 days |
| CC(C)[C@H]1C(=O)OC[C@@H](NC(=O)c2cnc3ccccc3n2)C(=O)N[C@@H](C)C(=O)N(C)[C@H]2C[S+]([O-])C([S+](C)[O-])[C@@H](C(=O)N1C)N(C)C(=O)[C@H](C)NC(=O)[C@H](NC(=O)c1cnc3ccccc3n1)COC(=O)[C@H](C(C)C)N(C)C2=O (some centres undefined) [listing 1 of 2 here] | 17 | 31 | – | – | – | – |
| COc1cccc2c1C(=O)c1c(O)c3c(c(O)c1C2=O)C[C@@](O)(C(=O)CO)C[C@@H]3O[C@H]1C[C@H](N)[C@H](O)[C@H](C)O1 [DOXORUBICIN] | – | – | 160 (≈ 294 nM) | 540 (≈ 994 nM) | 9.6 (≈ 17.7 nM) | – |
| CC(C)[C@H]1C(=O)OC[C@@H](NC(=O)c2cnc3ccccc3n2)C(=O)N[C@@H](C)C(=O)N(C)[C@H]2C[S+]([O-])C([S+](C)[O-])[C@@H](C(=O)N1C)N(C)C(=O)[C@H](C)NC(=O)[C@H](NC(=O)c1cnc3ccccc3n1)COC(=O)[C@H](C(C)C)N(C)C2=O (some centres undefined) [listing 2 of 2 here] | – | – | 590 (≈ 521 nM) | 1700 (≈ 1500 nM) | 98 (≈ 86.5 nM) | – |
| CC(C)[C@H]1C(=O)OC[C@@H](NC(=O)c2cnc3ccccc3n2)C(=O)N[C@@H](C)C(=O)N(C)[C@H]2CSC([S+](C)[O-])[C@@H](C(=O)N1C)N(C)C(=O)[C@H](C)NC(=O)[C@H](NC(=O)c1cnc3ccccc3n1)COC(=O)[C@H](C(C)C)N(C)C2=O (some centres undefined) [listing 2 of 2 here] | – | – | 540 (≈ 483 nM) | 310 (≈ 277 nM) | 8.8 (≈ 7.88 nM) | – |
